Assay results published in patent US20210254101A1, “METHODS FOR TREATING SPINAL CORD INJURY” (THE CHILDREN'S MEDICAL CENTER CORPORATION, priority 2018, published 2021).

Key:
[1] = Guettier et al., 2009, cited from earlier work
[2] = test system: mice with staggered lesions; experiment: Basso Mouse Scale (BMS) open field locomotion after staggered T7/T10 lateral hemisections; type: in vivo; conditions: for stepping ability / functional recovery (BMS), chronic compound treatment: daily i.p. treatment from 1 week after injury, BMS about 24 h after previous dose, FIG. 1E, 7A
Procedure: A staggered lesion paradigm was optimized in which two lateral hemisections were performed at the thoracic (T) 7 and T10 levels simultaneously (FIGS. 1A and 1B), similar to the model previously described (Courtine 2008; van den Brand, 2012). The T10 lesion is a lateral hemisection that ends at the spinal cord midline, while the T7 lesion, contralateral to the T10 lesion, extends slightly beyond the midline (FIG. 1A). With this double hemisection procedure, all descending axons passing T10 are severed, leaving only those crossing the midline between T7 and T10 intact (FIG. 1C). Indeed, by immunohistochemistry with anti-5-HT antibodies, which label serotonergic axons, descending serotonergic axons could be detected in the spinal cord segments between the lesions, but not in the lumbar spinal cord (FIG. 1C). Thus, a relay zone remains between and around the lesions (T7 and T10) where descending axons terminate, and where some propriospinal neurons maintain their connections with lumbar spinal neurons (see herein below).
This double hemisection SCI model was used to seek small molecule compounds that could reactivate the spared, but dormant, spinal connections by monitoring hindlimb motor performance during over-ground locomotion. To this end, daily compound treatment was started 1 week after injury and then monitored the BMS scores approximately 24 hours after the previous day's compound treatment on a weekly basis (FIG. 1D). Behavioral outcomes observed at these time points likely reflect sustained effects of the treatment, which are more clinically relevant.
Surgical Procedures. The procedure of T7 and T10 double lateral hemisection was similar to that described elsewhere (Courtine et al., 2008; van den Brand et al., 2012). Briefly, a midline incision was made over the thoracic vertebrae, followed by a T7-10 laminectomy. For the T7 right side over-hemisection, a scalpel and micro-scissors were carefully used to interrupt the bilateral dorsal column at T7, and ensured no sparing of ventral pathways on the contralateral side (FIG. 1A). For the T10 left hemisection, a scalpel and micro-scissors were carefully used to interrupt only the left side of the spinal cord until the midline. The muscle layers were then sutured, and the skin was secured with wound clips. All animals received post hoc histological analysis, and those with spared 5HT axons at the lumbar spinal cord (L2-5) were excluded for behavioral analysis (FIG. 7).
(§1) Behavioral Experiments. Motor function was evaluated with a locomotor open field rating scale on the Basso Mouse Scale (BMS). For transient pharmacological treatments, ten to fifteen minutes (van den Brand et al., 2012) prior to behavioral tests (grounding walking, all of which were performed individually), mice received systematic administration (i.p.) of the neural modulators listed above. It is important to note that with a single intraperitoneal injection, plasma CNO levels peak at 15 min and become very low by 2 h after injection (Guettier et al., 2009). For chronic pharmacological treatments, 24 hours prior to behavioral tests, mice received systematic administration of the compounds listed above. All behavioral tests were completed within 1-3 hours. For detailed hindlimb kinematic analysis, mice from different groups were placed in the MotoRater (TSE Systems, (Zorner et al., 2010)), and all kinematic analysis was performed based on data collected by the MotoRater.

neuropathic pain = conditions: animal models; Gagnon et al., 2013; Ferrini et al., 2017; Knabl et al., 2008; cited from earlier work
c-Fos = c-Fos immunoreactivity in spinal cord segments between T7 and T10 after 1 hour walking; type: in vivo, mouse; conditions: chronic treatment
From the text: In mature neurons, GABA and glycine are inhibitory because they open chloride channels, which allow chloride ion influx leading to hyperpolarization. In contrast, during development, the elevated intracellular chloride levels render GABAA- and glycine-mediated currents depolarizing and generally excitatory. During early postnatal life, KCC2 upregulation in postnatal neurons is crucial for reducing intracellular chloride concentrations, transforming excitation into inhibition (Ben-Ari et al., 2012; Kaila et al., 2014). Thus, injury-induced KCC2 down-regulation (Boulenguez et al., 2010; Cote et al., 2014) would be expected to restore an immature state in which GABA and glycine receptors can depolarize neurons. In this scenario, KCC2 activation in spinal inhibitory neurons would transform local circuits in the relay zone towards a more physiological state, which is more receptive to descending inputs. To examine this, c-Fos immunoreactivity was used as a proxy of neuronal activity in the spinal cord segments between T7 and T10 at 8 weeks after injury, and after walking on a treadmill for 1 hour. In each group, the majority of c-Fos-positive cells in these spinal segments were also positively stained with NeuN, a neuronal marker (FIG. 11A, 11B). In injured mice without treatment, the c-Fos-positive neurons were concentrated in the dorsal horn of the spinal cord (FIG. 5A-5C), perhaps reflecting hypersensitivity to peripheral sensory inputs in these injured mice. […] This KCC2-transformed distribution pattern is similar to what was detected in intact mice, in response to walking (FIG. 5A-5C).
Immunohistochemistry and Imaging. The paraformaldehyde (PFA) fixed tissues were cryo-protected with 30% sucrose and processed using cryostat (section thickness 40 μm for spinal cord). Sections were treated with a blocking solution containing 10% normal donkey serum with 0.5% Triton-100 for 2 hours at room temperature before staining. The primary antibodies (4 □, overnight) used were: rabbit anti-GFAP [DAKO (Z0334), 1:600]; rabbit anti-5-HT [Immunostar (20080), 1:5,000]; chicken anti-GFP [Abcam (ab13970), 1:400]; rabbit anti-RFP [Abcam (ab34771), 1:400]; rabbit anti-PKCγ [Santa Cruz (sc211), 1:100]; rat anti-HA [Sigma (11867423001), 1:200]; rabbit anti-c-Fos [Cell signaling (2250s), 1:100]; and mouse anti-NeuN [Millipore (MAB377), 1:400]. Secondary antibodies (room temperature, 2 h) included: Alexa Fluor 488-conjugated donkey anti chicken and rabbit; and Alexa Fluor 594-conjugated donkey anti rabbit (all from Invitrogen). c-Fos immunoreactivity of spinal neurons was determined as previously described (Courtine et al., 2009), after 1-hour of continuous quadrupedal free walking (intact), stepping (CLP290 or AAV-KCC2 treated mice) or dragging (vehicle or AAV-GFP treated mice). The mice were returned to their cages, and were then anesthetized and sacrificed by intracardial perfusion of 4% PFA (wt/vol) in phosphate buffered saline (PBS) about 2 hours later.

[3] = test system: mice with a complete T8 spinal cord transection; experiment: BMS open field locomotion after complete T8 spinal cord transection; type: in vivo, mouse; conditions: T8 complete transection, FIG. 7F
From the text: CLP290's effects could result from reactivating the spared dormant descending connections in the spinal cord after SCI. However, it could also act directly on the lumbar spinal cord, independently of descending inputs. […] Therefore, different from this transient effector that acts directly on the lumbar spinal cord, the effects of CLP290 on functional improvement are dependent on spared connections.
The procedure of T8 full transection was similar to that described elsewhere (Courtine et al., 2009). Briefly, a midline incision was made over the thoracic vertebrae, followed by a T8 laminectomy. The complete T8 transection was then performed carefully using both a scalpel and micro-scissors. The muscle layers were then sutured and the skin was secured with wound clips.
as §1

[4] = T8/9, 8 weeks after injury, FIG. 5A-5C

## C[N+]1([O-])CCN(C2=Nc3cc(Cl)ccc3Nc3ccccc32)CC1 [CNO, Clozapine N-oxide]
[1]; by 2 h after single intraperitoneal injection
  plasma CNO levels: very low
[1]; single intraperitoneal injection
  time of peak plasma CNO levels: 15 min

## CCCCNc1cc(C(=O)O)cc(S(N)(=O)=O)c1Oc1ccccc1 [Bumetanide]
[2]
  stepping ability / functional recovery (BMS), chronic compound treatment: some effects, but without statistical significance

## Cn1ncnc1COc1nn2c(-c3cc(F)ccc3F)nnc2cc1C(C)(C)C [L838,417]
Neuropathic pain
  effect on neuropathic pain: reduce neuropathic pain
c-Fos; [4]
  c-Fos-positive neurons in the dorsal horn (laminae I-V): reduced c-Fos-positive neurons in dorsal horn
  c-Fos-positive neurons in the intermediate/ventral spinal cord: without increasing those in intermediate zones and ventral region
c-Fos; staggered injured mice
  neuronal activation levels across spinal cord regions: reduced neuronal activation levels in all spinal cord regions
[2]
  stepping ability / functional recovery (BMS), chronic compound treatment: failed to promote functional motor recovery

## c1ccc2nc(N3CCNCC3)ccc2c1 [quipazine]
[3]; 8 weeks, no chronic treatment
  BMS improvement measured acutely after compound administration: rapid, but transient, BMS improvement
[3]
  duration of acute BMS improvement / locomotion after administration: less than 2 hours
  start of acute BMS improvement after administration: 10 min
[2]; staggered lesion, 8 weeks after SCI, FIG. 7B
  BMS improvement measured acutely after compound administration: rapid, but transient, BMS improvement
[2]; staggered lesion, FIG. 7B
  duration of acute BMS improvement / locomotion after administration: less than 2 hours
  start of acute BMS improvement after administration: 10 min
